Laboratory results published in paper PMC5402301, “Discovery of tauroursodeoxycholic acid biotransformation enzymes from the gut microbiome of black bears using metagenomics” (Scientific Reports, 2017).

Experiments:
Experiment in all cases: NADP+ reduction at […] nm, Michaelis-Menten fit
Format in all cases: biochemical
Settings in all cases: NADP+ (0.5 mM in standard assay), 50 mM Tris-HCl pH 8.0, 25 °C
H1-a-1 = test system: T1, H1-a-1
T1 construct: full-length, GST fusion (pGEX-6P-1) expressed in E. coli BL21, GST tag cut off with PreScission protease; raw reads SRA SRP079591

H1-a-2 = test system: T2, H1-a-2
T2 construct: full-length, GST fusion (pGEX-6P-1) expressed in E. coli BL21, GST tag cut off with PreScission protease; raw reads SRA SRP079591

S1-a-2 = test system: T3, S1-a-2
T3 construct: full-length, GST fusion (pGEX-6P-1) expressed in E. coli BL21, GST tag cut off with PreScission protease; raw reads SRA SRP079591

S1-a-1 = test system: T4, S1-a-1
T4 construct: full-length, GST fusion (pGEX-6P-1) expressed in E. coli BL21, GST tag cut off with PreScission protease; raw reads SRA SRP079591

Y1-a-1 = test system: T5, Y1-a-1
T5 construct: full-length, GST fusion (pGEX-6P-1) expressed in E. coli BL21, GST tag cut off with PreScission protease; raw reads SRA SRP079591

Y1-b-1 = test system: T6, Y1-b-1
T6 construct: full-length, GST fusion (pGEX-6P-1) expressed in E. coli BL21, GST tag cut off with PreScission protease; raw reads SRA SRP079591

| Km (H1-a-1) | Km (H1-a-2) | Km (S1-a-2) | Km (S1-a-1) | Km (Y1-a-1) | Km (Y1-b-1) | Compound |
| --- | --- | --- | --- | --- | --- | --- |
| 390 µM | 695 µM | 263 µM | 132 µM | 556 µM |  | C[C@H](CCC(=O)NCCS(=O)(=O)O)[C@H]1CC[C@H]2[C@@H]3[C@H](O)C[C@@H]4C[C@H](O)CC[C@]4(C)[C@H]3CC[C@]12C [TCDCA] |
|  |  |  |  |  | 6.15 mM | C[C@H](CCC(=O)NCCS(=O)(=O)O)[C@H]1CC[C@H]2[C@@H]3[C@@H](O)C[C@@H]4C[C@H](O)CC[C@]4(C)[C@H]3CC[C@]12C [TUDCA] |
